# Test system: D. melanogaster
# Experiment: Viability of injected D. melanogaster
# Conditions: 1 μl injected; 1 mM (ascorbic acid 5 mM); observed 48 h
# Procedure: (A) Tubular secretion rates of Malpighian tubules isolated from D. melanogaster were measured, using half-strength Schneider's medium. Basal tubular secretion was measured at 0, 10, and 20 minutes; at 20 minutes (depicted by the arrow) 1 mM cobinamide (Cbi, open circles), 1 mM NO-Cbi (filled circles), 0.5 mM Deta-NONOate (diamonds), or 100 μM 8-CPT-cGMP (inverted triangles) were added. Results are the mean±S.D. of three independent experiments performed on Malpighian tubule pairs from 10 flies. […] (B). Flies were injected with 1 μl of 1 mM cobinamide (Cbi, open circles), 1 mM NO-Cbi (filled circles), 0.5 mM Deta-NONOate (diamonds), or 1 mM spermine NONOate (squares). […] The data are plotted as a Kaplan-Meier survival curve, and are the mean±SD of three experiments, with 10 flies per condition per experiment. […] (C). Flies were injected with 1 μl of water (control, open bar), 1 mM cobinamide (Cbi, grey bar), or 1 mM NO-Cbi (black bars). Flies were killed and extracts were prepared at 3 hours for the water- and cobinamide-injected flies, and at the indicated times for the NO-Cbi-injected flies. Nitrite and nitrate in the extracts were measured using an enhanced Griess reagent.
# The fluid volume of a fly is […], and thus, the injected agent was diluted about 10-fold. […]
compound,measurement,value
"CC1=C2[N+]3=C(C=C4[N+]5=C(C(C)=C6[N]7C(C(CC(N)=O)C6(C)CCC(=O)NCC(C)O)C6(C)[N+](=C1C(CCC(N)=O)C6(C)CC(N)=O)[Co-3]753[N]=O)C(CCC(N)=O)C4(C)C)C(CCC(N)=O)C2(C)CC(N)=O (stereo not shown) [NO-Cbi, nitrosyl cobinamide]",fly killing / toxicity to flies,killed the flies as effectively as 1 mM spermine NONOate

# Reference: patent US8222242B2, “Nitric oxide releasing compounds” (The Regents of the University of California, priority 2008, dated 2012)
